According to the supplement of paper PMC11451515:

Tested on: P12-Ichikawa
Assay: cell viability relative to DMSO control; higher = less cytotoxic
Conditions: 48 h
Summary of the method: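 Viability was expressed as a per-plate percentage of DMSO wells, with cell-free wells as background. Leukemia cells (NOMO1 or SEM at 500 cells/well, P12-Ichikawa at 1000 cells/well) were adapted for at least four passages in each medium and seeded in 1536-well plates (5 μl). Library compounds in DMSO were pin-dosed over an 11-point threefold series from 47 μM to 0.79 nM, and CellTiter-Glo One luminescence was read after 48 h at 37°C.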

[1] = RPMI 5 mM glucose + 10% dialyzed FBS, 0.000781 µM
[2] = RPMI 5 mM glucose + 10% dialyzed FBS, 0.00234 µM
[3] = RPMI 5 mM glucose + 10% dialyzed FBS, 0.00702 µM
[4] = RPMI 5 mM glucose + 10% dialyzed FBS, 0.0211 µM
[5] = RPMI 5 mM glucose + 10% dialyzed FBS, 0.0632 µM
[6] = RPMI 5 mM glucose + 10% dialyzed FBS, 0.19 µM
[7] = RPMI 5 mM glucose + 10% dialyzed FBS, 0.569 µM
[8] = RPMI 5 mM glucose + 10% dialyzed FBS, 1.71 µM
[9] = RPMI 5 mM glucose + 10% dialyzed FBS, 5.12 µM
[10] = RPMI 5 mM glucose + 10% dialyzed FBS, 15.4 µM
[11] = RPMI 5 mM glucose + 10% dialyzed FBS, 46.1 µM
[12] = HPLM + 10% dialyzed FBS, 0.000781 µM
[13] = HPLM + 10% dialyzed FBS, 0.00234 µM
[14] = HPLM + 10% dialyzed FBS, 0.00702 µM
[15] = HPLM + 10% dialyzed FBS, 0.0211 µM
[16] = HPLM + 10% dialyzed FBS, 0.0632 µM
[17] = HPLM + 10% dialyzed FBS, 0.19 µM
[18] = HPLM + 10% dialyzed FBS, 0.569 µM
[19] = HPLM + 10% dialyzed FBS, 1.71 µM
[20] = HPLM + 10% dialyzed FBS, 5.12 µM
[21] = HPLM + 10% dialyzed FBS, 15.4 µM
[22] = HPLM + 10% dialyzed FBS, 46.1 µM
[23] = RPMI 5 mM glucose + 10% FBS, 0.000781 µM
[24] = RPMI 5 mM glucose + 10% FBS, 0.00234 µM
[25] = RPMI 5 mM glucose + 10% FBS, 0.00702 µM
[26] = RPMI 5 mM glucose + 10% FBS, 0.0211 µM
[27] = RPMI 5 mM glucose + 10% FBS, 0.0632 µM
[28] = RPMI 5 mM glucose + 10% FBS, 0.19 µM
[29] = RPMI 5 mM glucose + 10% FBS, 0.569 µM
[30] = RPMI 5 mM glucose + 10% FBS, 1.71 µM
[31] = RPMI 5 mM glucose + 10% FBS, 5.12 µM
[32] = RPMI 5 mM glucose + 10% FBS, 15.4 µM
[33] = RPMI 5 mM glucose + 10% FBS, 46.1 µM

Structure (SMILES)	cell viability [1] [%]	cell viability [2] [%]	cell viability [3] [%]	cell viability [4] [%]	cell viability [5] [%]	cell viability [6] [%]	cell viability [7] [%]	cell viability [8] [%]	cell viability [9] [%]	cell viability [10] [%]	cell viability [11] [%]	cell viability [12] [%]	cell viability [13] [%]	cell viability [14] [%]	cell viability [15] [%]	cell viability [16] [%]	cell viability [17] [%]	cell viability [18] [%]	cell viability [19] [%]	cell viability [20] [%]	cell viability [21] [%]	cell viability [22] [%]	cell viability [23] [%]	cell viability [24] [%]	cell viability [25] [%]	cell viability [26] [%]	cell viability [27] [%]	cell viability [28] [%]	cell viability [29] [%]	cell viability [30] [%]	cell viability [31] [%]	cell viability [32] [%]	cell viability [33] [%]
c1ccc(-c2oc3ncnc(NC[C@@H]4CCCO4)c3c2-c2ccccc2)cc1	109	118	120	113	127	124	128	115	112	103	49.8	–	–	–	–	–	–	–	–	–	–	–	–	–	–	–	–	–	–	–	–	–	–
CC(C)Oc1ccc(C(=O)N[C@H](CNC(=O)CN(C)C)Cc2ccc(-c3cn4cccc([C@H](C)O)c4n3)cc2)cc1Cl	108	117	112	110	102	101	97.9	63	38.4	31.6	32.7	121	115	118	115	106	101	107	78.1	48.3	45.8	54.2	117	120	118	111	115	110	103	41.2	25.3	23	26.6
Cc1onc(-c2ccccc2)c1C(=O)N[C@@H]1C(=O)N2[C@@H]1SC(C)(C)[C@@H]2C(=O)[O-].[Na+]	104	112	131	139	123	100	92.7	89.6	75.9	62.4	67.8	109	116	120	108	116	113	113	104	86.4	81.3	77.2	114	117	111	111	130	122	112	85.3	71	71.8	68.2
C[C@H]1O[C@H](C[C@H](O)[C@@H]1O)O[C@H]2[C@@H](O)C[C@@H](O[C@@H]2C)O[C@H]3[C@@H](O)C[C@@H](O[C@@H]3C)O[C@H]4CC[C@@]5(C)[C@H](CC[C@@H]6[C@@H]5C[C@@H](O)[C@]7(C)[C@H](CC[C@]67O)C/8=C/C(=O)OC8)C4	113	111	117	110	76.4	32.5	13.3	10.7	8.02	8.92	6.92	116	128	123	111	33.5	13.3	12.7	12.8	14.3	20.5	17.2	115	123	124	110	86.5	58.1	12.3	10.4	9.93	12.4	11.7
N=C1N[C@H]2[C@H](CS[C@H]2CCCCC(=O)O)N1	114	124	111	129	117	126	121	117	126	126	116	108	116	110	118	124	119	130	114	123	119	113	123	130	121	134	135	131	125	126	135	126	139
CC[C@]1(O)C[C@@H]2CN(CCc3c([nH]c4ccccc34)[C@@](C(=O)OC)(c3cc4c(cc3OC)N(C)[C@H]3[C@@](O)(C(N)=O)[C@H](O)[C@]5(CC)C=CCN6CC[C@]43[C@@H]65)C2)C1	111	103	106	104	101	34.3	22.8	29.1	13.8	10.1	11.5	112	109	112	97.5	78.4	18.3	20.5	14.2	7.56	7.86	9.96	109	115	115	98.6	65.8	16.7	22.7	14	8.37	6.73	6.12
CO/N=C(\C(=O)N[C@@H]1C(=O)N2C(C(=O)OCOC(=O)C(C)(C)C)=C(/C=C\c3scnc3C)CS[C@H]12)c1csc(N)n1	92	89.6	102	91.8	104	106	99.2	98.7	102	80.9	57.2	91.7	102	105	104	108	110	106	106	110	89.8	72.4	85.6	91.6	101	99.6	101	103	96.4	103	103	75.8	60.1
CC(C)OC1=CC=C2C(=C1)O\C=C(/C2=O)C3=CC=CC=C3	127	121	122	116	132	110	122	115	119	92.4	110	118	126	122	128	120	119	124	117	113	118	112	123	118	127	128	131	122	121	123	115	110	113
